Patent US20030004172A1, “Fused pyrimidinone matrix metalloproteinase inhibitors” (priority 2001, published 2003)

molecular target: MMP-13CD (catalytic domain of collagenase-3) (Homo sapiens, UniProt P45452); test: Thiopeptolide substrate hydrolysis inhibition assay, MMP-13CD; assay type: biochemical; details: Table I; thiopeptolide substrate, HEPES pH 7.0, 22° C.; read-out: MMP-13CD IC50
Source text: Thiopeptolide substrates show virtually no decomposition or hydrolysis at or below neutral pH in the absence of a matrix metalloproteinase enzyme.

Row | Compound | IC50 [nM]
1 | Cn1c(=O)n(Cc2ccccc2)c(=O)c2cc(C(=O)OC3CCCc4ccccc43)sc21 (stereo not drawn) [Example 198, 3-Benzyl-1-methyl-2,4-dioxo-1,2,3,4-tetrahydro-thieno[2,3-d]pyrimidine-6-carboxylic acid 1,2,3,4-tetrahydro-naphthalen-1-yl ester] | > 100000
2 | Cn1c(=O)n(Cc2ccccc2)c(=O)c2cc(C(=O)OCC3CCCN3)sc21 (stereo not drawn) [Example 199, 3-Benzyl-1-methyl-2,4-dioxo-1,2,3,4-tetrahydro-thieno[2,3-d]pyrimidine-6-carboxylic acid pyrrolidin-2-ylmethyl ester] | 17000
3 | Cn1c(=O)n(Cc2ccccc2)c(=O)c2cc(C(=O)OCc3cccc(Cl)c3)sc21 [Example 200, 3-Benzyl-1-methyl-2,4-dioxo-1,2,3,4-tetrahydro-thieno[2,3-d]pyrimidine-6-carboxylic acid 3-chloro-benzyl ester] | 67
4 | Cn1c(=O)n(Cc2ccccc2)c(=O)c2cc(C(=O)OCc3ccc4c(c3)OCO4)sc21 [Example 201, 3-Benzyl-1-methyl-2,4-dioxo-1,2,3,4-tetrahydro-thieno[2,3-d]pyrimidine-6-carboxylic acid 1,3-benzodioxol-5-ylmethyl ester] | 300
5 | CSc1ccc(COC(=O)c2cc3c(=O)n(Cc4ccccc4)c(=O)n(C)c3s2)cc1 [Example 202, 3-Benzyl-1-methyl-2,4-dioxo-1,2,3,4-tetrahydro-thieno[2,3-d]pyrimidine-6-carboxylic acid 4-methylsulfanyl-benzyl ester] | 360
6 | CSc1ccc(COC(=O)c2cc3c(=O)n(Cc4ccccc4)c(=O)n(C)c3s2)cc1 [Example 203, 3-Benzyl-1-methyl-2,4-dioxo-1,2,3,4-tetrahydro-thieno[2,3-d]pyrimidine-6-carboxylic acid 4-methylsulfanyl-benzyl ester] | 360
7 | Cn1c(=O)n(Cc2ccccc2)c(=O)c2cc(C(=O)OCc3ccc(Cl)c(Cl)c3)sc21 [Example 204, 3-Benzyl-1-methyl-2,4-dioxo-1,2,3,4-tetrahydro-thieno[2,3-d]pyrimidine-6-carboxylic acid 3,4-dichloro-benzyl ester] | 72
8 | Cn1c(=O)n(Cc2ccccc2)c(=O)c2cc(C(=O)OCCC(c3ccccc3)c3ccccc3)sc21 [Example 205, 3-Benzyl-1-methyl-2,4-dioxo-1,2,3,4-tetrahydro-thieno[2,3-d]pyrimidine-6-carboxylic acid 3,3-diphenyl-propyl ester] | 19000
9 | Cn1c(=O)n(Cc2ccccc2)c(=O)c2cc(C(=O)OCCc3ccccn3)sc21 [Example 206, 3-Benzyl-1-methyl-2,4-dioxo-1,2,3,4-tetrahydro-thieno[2,3-d]pyrimidine-6-carboxylic acid 2-pyridin-2-yl-ethyl ester] | 15000
10 | Cn1c(=O)n(Cc2ccccc2)c(=O)c2cc(C(=O)OCc3ccoc3)sc21 [Example 207, 3-Benzyl-1-methyl-2,4-dioxo-1,2,3,4-tetrahydro-thieno[2,3-d]pyrimidine-6-carboxylic acid furan-3-ylmethyl ester] | 200
11 | C=CCCOC(=O)c1cc2c(=O)n(Cc3ccccc3)c(=O)n(C)c2s1 [Example 208, 3-Benzyl-1-methyl-2,4-dioxo-1,2,3,4-tetrahydro-thieno[2,3-d]pyrimidine-6-carboxylic acid but-3-enyl ester] | 100
12 | Cn1c(=O)n(Cc2ccccc2)c(=O)c2cc(C(=O)OCCC#N)sc21 [Example 209, 3-Benzyl-1-methyl-2,4-dioxo-1,2,3,4-tetrahydro-thieno[2,3-d]pyrimidine-6-carboxylic acid 2-cyano-ethyl ester] | > 100000
13 | CCOCCOC(=O)c1cc2c(=O)n(Cc3ccccc3)c(=O)n(C)c2s1 [Example 210, 3-Benzyl-1-methyl-2,4-dioxo-1,2,3,4-tetrahydro-thieno[2,3-d]pyrimidine-6-carboxylic acid 2-ethoxy-ethyl ester] | 1200
14 | Cn1c(=O)n(Cc2ccccc2)c(=O)c2cc(C(=O)OC(C#N)c3ccccc3)sc21 (stereo not drawn) [Example 211, 3-Benzyl-1-methyl-2,4-dioxo-1,2,3,4-tetrahydro-thieno[2,3-d]pyrimidine-6-carboxylic acid cyano-phenyl-methyl ester] | 2100
15 | Cn1c(=O)n(Cc2ccccc2)c(=O)c2cc(C(=O)NCc3ccc(C(F)(F)F)cc3)sc21 [Example 212, 3-Benzyl-1-methyl-2,4-dioxo-1,2,3,4-tetrahydro-thieno[2,3-d]pyrimidine-6-carboxylic acid 4-trifluoromethyl-benzylamide] | 670
16 | Cc1ccc(CNC(=O)c2cc3c(=O)n(Cc4ccccc4)c(=O)n(C)c3s2)cc1 [Example 213, 3-Benzyl-1-methyl-2,4-dioxo-1,2,3,4-tetrahydro-thieno[2,3-d]pyrimidine-6-carboxylic acid 4-methyl-benzylamide] | 1700
17 | Cn1c(=O)n(Cc2ccccc2)c(=O)c2cc(C(=O)NCCc3ccccc3)sc21 [Example 214, 3-Benzyl-1-methyl-2,4-dioxo-1,2,3,4-tetrahydro-thieno[2,3-d]pyrimidine-6-carboxylic acid phenethyl-amide] | 20000

Row | Compound | IC50 [nM]
18 | Cn1c(=O)n(Cc2ccccc2)c(=O)c2cc(C(=O)NC3CC3)sc21 [Example 215, 3-Benzyl-1-methyl-2,4-dioxo-1,2,3,4-tetrahydro-thieno[2,3-d]pyrimidine-6-carboxylic acid cyclopropylamide] | 24000
19 | COc1ccc(CNC(=O)c2cc3c(=O)[nH]c(=O)n(C)c3s2)cc1 [Example 216] | 18000
20 | COc1cccc(CNC(=O)c2cc3c(=O)[nH]c(=O)n(C)c3s2)c1 [Example 218] | 18000
21 | COc1cc(CNC(=O)c2cc3c(=O)[nH]c(=O)n(C)c3s2)ccn1 [Example 219, 1-methyl-2,4-dioxo-1,2,3,4-tetrahydro-thieno[2,3-d]pyrimidine-6-carboxylic acid (2-methoxy-pyridin-4-ylmethyl)-amide] | 17000
22 | COc1ccc(CNC(=O)c2cc3c(=O)n(Cc4ccc(-c5noc(=O)[nH]5)cc4)c(=O)n(C)c3s2)cc1 [Example 221, 1-Methyl-2,4-dioxo-3-[4-(5-oxo-4,5-dihydro-1,2,4-oxadiazol-3-yl)-benzyl]-1,2,3,4-tetrahydro-thieno[2,3-d]pyrimidine-6-carboxylic acid 4-methoxy-benzylamide] | 4.6
23 | COc1ccc(CNC(=O)c2cc3c(=O)n(Cc4ccc(-c5noc(=S)[nH]5)cc4)c(=O)n(C)c3s2)cc1 [Example 222, 1-Methyl-2,4-dioxo-3-[4-(5-thioxo-4,5-dihydro-1,2,4-oxadiazol-3-yl)-benzyl]-1,2,3,4-tetrahydro-thieno[2,3-d]pyrimidine-6-carboxylic acid 4-methoxy-benzylamide] | 4.2
24 | COc1ccc(CNC(=O)c2cc3c(=O)n(C/C=C/C(=O)O)c(=O)n(C)c3s2)cc1 [Example 226, (E)-4-[6-(4-Methoxy-benzylcarbamoyl)-1-methyl-2,4-dioxo-1,4-dihydro-2H-thieno[2,3-d]pyrimidin-3-yl]-but-2-enoic acid] | 4900
25 | COc1ccc(CNC(=O)c2cc3c(=O)n(CCS(=O)(=O)c4ccccc4)c(=O)n(C)c3s2)cc1 [Example 227, 3-(2-Benzenesulfonyl-ethyl)-1-methyl-2,4-dioxo-1,2,3,4-tetrahydro-thieno[2,3-d]pyrimidine-6-carboxylic acid 4-methoxy-benzylamide] | 3800
26 | COCN1C(=O)c2ccc(Cn3c(=O)c4cc(C(=O)NCc5ccc(OC)cc5)sc4n(C)c3=O)cc2S1(=O)=O [Example 229, 3-(2-Methoxymethyl-1,1,3-trioxo-2,3-dihydro-1H-1l^6l-1,2-benzisothiazol-6-ylmethyl)-1-methyl-2,4-dioxo-1,2,3,4-tetrahydro-thieno[2,3-d]pyrimidine-6-carboxylic acid 4-methoxy-benzylamide] | 680
27 | CCCCCC#CCn1c(=O)c2cc(C(=O)NCc3ccc(OC)cc3)sc2n(C)c1=O [Example 230, 1-Methyl-3-oct-2-ynyl-2,4-dioxo-1,2,3,4-tetrahydro-thieno[2,3-d]pyrimidine-6-carboxylic acid 4-methoxy-benzylamide] | 77
28 | COc1ccc(CNC(=O)c2cc3c(=O)n(CCNS(=O)(=O)c4ccc(Cl)cc4)c(=O)n(C)c3s2)cc1 [Example 231, 3-[2-(4-Chloro-benzenesulfonylamino)-ethyl]-1-methyl-2,4-dioxo-1,2,3,4-tetrahydro-thieno[2,3-d]pyrimidine-6-carboxylic acid 4-methoxy-benzylamide] | 2900
29 | COc1cccc(CNC(=O)c2cc3c(=O)n(CCOc4ccc(Br)cc4)c(=O)n(C)c3s2)c1 [Example 233, 3-[2-(4-Bromo-phenoxy)-ethyl]-1-methyl-2,4-dioxo-1,2,3,4-tetrahydro-thieno[2,3-d]pyrimidine-6-carboxylic acid 3-methoxy-benzylamide] | 69
30 | COc1ccc(CNC(=O)c2cc3c(=O)n(CCOc4ccc(F)cc4)c(=O)n(C)c3s2)cc1 [Example 234, 3-[2-(4-Fluoro-phenoxy)-ethyl]-1-methyl-2,4-dioxo-1,2,3,4-tetrahydro-thieno[2,3-d]pyrimidine-6-carboxylic acid 4-methoxy-benzylamide] | 150
31 | COc1ccc(CNC(=O)c2cc3c(=O)n(CCN)c(=O)n(C)c3s2)cc1 [Example 235, 3-(2-aminoethyl)-1-methyl-2,4-dioxo-1,2,3,4-tetrahydro-thieno[2,3-d]pyrimidine-6-carboxylic acid 4-methoxy-benzylamide] | 18000
32 | COc1cccc(CNC(=O)c2cc3c(=O)n(CCOc4ccc(F)cc4)c(=O)n(C)c3s2)c1 [Example 236, 3-[2-(4-fluoro-phenoxy)-ethyl]-1-methyl-2,4-dioxo-1,2,3,4-tetrahydro-thieno[2,3-d]pyrimidine-6-carboxylic acid 3-methoxy-benzylamide] | 49.5
33 | COc1cccc(CNC(=O)c2cc3c(=O)n(CCOc4ccc(Cl)cc4)c(=O)n(C)c3s2)c1 [Example 237, 3-[2-(4-chloro-phenoxy)-ethyl]-1-methyl-2,4-dioxo-1,2,3,4-tetrahydro-thieno[2,3-d]pyrimidine-6-carboxylic acid 3-methoxy-benzylamide] | 92.5
